In brackets after ≈: the same amount, converted by molar mass. Like-named read-outs stand apart in the source and are kept apart here.
Key:
[1] = known coriolin type compounds; J. Antibiotics, Tetrahedron Letters; cited from earlier work
HeLa S3 cells [2] = test: cells; format: cell-based; details: for inhibition at 1 µg/mL: 1 μg/ml; for inhibition at 2 µg/mL: 2 μg/ml
Procedure: The HeLa S3 cells were scattered in a plastic laboratory dish, 6 cm in diameter, at the rate of 0.7×10^5 cells/plate by using as a medium an Eagle's MEM (Minimum Essential Medium) [Science, 30, 432-437 (1959)] containing 60 μg/ml of kanamycin and 10% calf serum. On the 2nd day, the medium was removed and a measured quantity of the compound of this invention was added together with a fresh serum-impregnated Eagle's MEM. The cell population at this time was 1.58×10^5 cells/plate. After adding the compound (I) of this invention thereto, cultures were grown for 3 days and then the medium was removed, followed by washing with physiological saline, treatment with 0.05% trypsin at room temperature for about 15 minutes and pipetting to disperse the cells. The cell number was counted by a counter and percent inhibition (%) was calculated from the number of the control cells (to which no compound was added) to determine […]. [formula]

[3] = test system: L-1210 (lymphatic leukemia strain); test: Life-prolonging effect in cancer (L-1210) affected mice; format: in vivo, mouse (BDF1); details: once a day for 10 days, from 24 hours after intraperitoneal inoculation of 1×10^5 L-1210 cells, BDF1 mice, compared with control group
Procedure: The L-1210 cells (1×10^5, 0.05 ml) were inoculated into the BDF1 mouse abdorminal cavities (BDF1 means a strain name of mouse), and after lapse of 24 hours, a measured amount of preparation (suspended in 0.5% CMC aqueous solution) was administered once a day for a period of 10 days.
The mice were observed till death, and by comparing the average number of surviving days of the tested mice with that of the control group (to which a 0.5% CMC aqueous solution alone was given), the life prolongation rate was calculated from the following formula: [drawing 17]

HeLa S3 cells [4] = test: cells; format: cell-based; details: Homo sapiens, 72 h, 3 days, read-out: ID50 (the source's name)
[5] = Homo sapiens, 72 h, 0.5 μg/ml, HeLa S3 cells, 3 days, read-out: Percent inhibition
[6] = Homo sapiens, 72 h, HeLa S3 cells, 3 days, read-out: Percent inhibition
[7] = Homo sapiens, HeLa S3, 72 h, read-out: Percent inhibition

| Compound | anti-tumor activity (in words) [1] | inhibition at 1 µg/mL (HeLa S3 cells [2]; [6]) | Life-prolonging effect (life prolongation rate) ([3]; dose 12.5 μg/mouse × 10) | Life-prolonging effect (life prolongation rate) ([3]; dose 25 μg/mouse × 10) | Life-prolonging effect (life prolongation rate) ([3]; dose 50 μg/mouse × 10) | IC50 (HeLa S3 cells [4]) | Life-prolonging effect (life prolongation rate) ([3]; dose 100 μg/mouse × 10) | Life-prolonging effect (life prolongation rate) ([3]; dose 200 μg/mouse × 10) | also measured |
| --- | --- | --- | --- | --- | --- | --- | --- | --- | --- |
| CCCCCCCC(=O)O[C@@H]1[C@@H]2[C@H](CC1(C)C)C(=O)[C@@]13O[C@@H]1C(=O)[C@@]1(CO1)[C@@]23C [5,8-dehydrocoriolin B] | having an anti-tumor activity | – | – | – | – | – | – | – | – |
| CCCCCCCC(=O)O[C@@H]1[C@@H]2[C@H](CC1(C)C)[C@H](O)[C@@]13O[C@@H]1C(=O)[C@@]1(CO1)[C@@]23C [5-dehydrocoriolin B VI, 5-dehydrocoriolin B, reference compound] | having an anti-tumor activity | 77.6% | 138% | 137% | 144% | 0.76 µg/mL (≈ 1.87 µM) | – | – | inhibition at 0.5 µg/mL (HeLa S3 cells [2]; [5]): 20%; Life-prolonging effect (life prolongation rate) ([3]; dose 6 μg/mouse × 10): 106% |
| C=C1CC2(OC1=O)[C@H]1CC(C)(C)[C@H](OC(=O)CCCCCCC)[C@H]1[C@]1(C)[C@]3(CO3)[C@@H](O)[C@H]3O[C@@]321 (stereo partly drawn) [I, 1α-octanoyl-4β, 15:6β,7β-dioxide-5β-hydroxy-8(22-methylene-21-butanolide)hirsutane] | – | – | – | – | 96% | 2.1 µg/mL (≈ 4.42 µM) | 111% | 130% | inhibition at 2 µg/mL (HeLa S3 cells [2]; [6]): 48%; inhibition at 4 µg/mL (HeLa S3 cells [2]; Homo sapiens, 72 h, 4 μg/ml, HeLa S3 cells, 3 days, read-out: Percent inhibition): 76.2% |
| C=C1CC2(OC1=O)[C@H]1CC(C)(C)[C@H](OC(=O)CCCCCCC)[C@H]1[C@]1(C)[C@]3(CO3)C(=O)[C@H]3O[C@@]321 (stereo partly drawn) [II, 1α-octanoyl-4β,15:6β,7β-dioxide-5-oxo-8(22-methylene-21-butanolide)hirsutane] | – | – | – | – | – | 0.12 µg/mL (≈ 0.254 µM) | – | – | inhibiting growth of the HeLa S3 cells (in words) (HeLa S3 cells [2]; HeLa S3 cells): works marvelously in preventing growth of the cancerous cells; inhibition at 0.1 µg/mL (HeLa S3 cells [2]; Homo sapiens, 72 h, 0.1 μg/ml, HeLa S3 cells, 3 days, read-out: Percent inhibition): 40.2%; inhibition at 0.2 µg/mL (HeLa S3 cells [2]; Homo sapiens, 72 h, 0.2 μg/ml, HeLa S3 cells, 3 days, read-out: Percent inhibition): 83.2%; toxicity (in words) (HeLa S3 cells [2]; stated with ID50, HeLa S3 cells): extremely low in toxicity |
| C=C1CC2(OC1=O)[C@H]1O[C@]13[C@@H](O)[C@H]1CC(C)(C)[C@H](OC(=O)CCCCCCC)[C@H]1[C@]3(C)[C@]21CO1 (stereo partly drawn) [III, 1α-octanoyl-4β,15:6β,7β-dioxide-5(19-methylene-18-butanolide)-8β-hydroxy-hirsutane] | – | 42.9% | 106% | 127% | 141% | 1.1 µg/mL (≈ 2.32 µM) | 148% | 148% | inhibition at 2 µg/mL (HeLa S3 cells [2]; [6]): 96.6%; Life-prolonging effect (life prolongation rate) ([3]; dose 6 μg/mouse × 10): 99% |
| C=C1CC2(OC1=O)[C@H]1O[C@]13C(=O)[C@H]1CC(C)(C)[C@H](OC(=O)CCCCCCC)[C@H]1[C@]3(C)[C@]21CO1 (stereo partly drawn) [IV, 1α-octanoyl-4β,15:6β,7β-dioxide-5(19-methylene-18-butanolide)-8-oxo-hirsutane] | – | 71.6% | 99% | 113% | 106% | 0.6 µg/mL (≈ 1.27 µM) | 127% | 127% | inhibition at 0.5 µg/mL (HeLa S3 cells [2]; [5]): 43.3% |
| C=C1CC2(OC1=O)[C@H]1O[C@]13C1(CC(=C)C(=O)O1)[C@H]1CC(C)(C)[C@H](OC(=O)CCCCCCC)[C@H]1[C@]3(C)[C@]21CO1 (stereo partly drawn) [V, 1α-octanoyl-4β,15:6β,7β-dioxide-5(19-methylene-18-butanolide)-8(22-methylene-21-butanolide)hirsutane] | – | – | – | – | – | – | 99% | 120% | IC50 (HeLa S3 cells [2]; Homo sapiens, HeLa S3, 72 h, read-out: ID50): 0.47 µg/mL (≈ 0.869 µM); inhibition at 0.25 µg/mL (HeLa S3 cells [2]; [7]): 22.4%; inhibition at 0.5 µg/mL (HeLa S3 cells [2]; [7]): 56.9% |
| coriolin | having an anti-tumor activity | – | – | – | – | – | – | – | – |
| coriolin C | having an anti-tumor activity | – | – | – | – | – | – | – | – |

Source: US4233224A, “Coriolin derivatives” (priority 1978, dated 1980)
